IC50 data for 26 molecules are collected here from patent US9187464B2, “TRPV4 antagonists” (GlaxoSmithKline Intellectual Property (No. 2) Limited, priority 2011, dated 2015).

This test concerns the target T1, human TRPV4 (Homo sapiens, UniProt Q9HBA0).
T1 construct: expressed in transfected cells; host or cells: HEK-293-MSR-II cells transduced with 1% BacMam virus
Briefly: Ligand-gated assay (Fluo4 calcium, FLIPR; inhibition of agonist-induced activation). The class given is cell-based. The conditions noted are these: HEK-293-MSR-II cells transduced with BacMam human TRPV4; agonist at EC80. The protocol: TRP channel activation/opening results in an influx of divalent and monovalent cations including calcium. The resulting changes in intracellular calcium were monitored using a calcium selective fluorescent dye Fluo4 (MDS Analytical Technologies). Dye loaded cells were initially exposed to test compound to verify a lack of agonist activity. Cells were subsequently activated by addition of an agonist and inhibition of the agonist-induced activation was recorded. Human embryonic kidney 293 cells stably expressing the macrophage scavenger receptor class II (HEK-293-MSR-II) and transduced with 1% BacMam (J. P. Condreay, S. M. Witherspoon, W. C. Clay and T. A. Kost, Proc Natl Acad Sci 96 (1999), pp. 127-132) virus expressing the human TRPV4 gene were plated at 15000 cells/well in a volume of 50 μL in a 384 well poly-D lysine coated plate. Cells were incubated for 24 hours at 37 degrees and 5% CO2. Media was then aspirated using a Tecan Plate-washer and replaced with 20 μL of dye loading buffer: HBSS, 500 uM Brilliant Black (MDS Analytical Technologies), 2 uM Fluo-4. Dye loaded plates were then incubated in the dark at room temperature for 1-1.5 hours. 10 μL of test compound diluted in HBSS (HBSS with 1.5 mM Calcium Chloride, 1.5 mM Magnesium Chloride and 10 mM HEPES. pH 7.4), +0.01% Chaps was added to the plate, incubated for 10 min at room temperature in the dark and then 10 μL of agonist was added at a final concentration equal to the agonist EC80. Calcium release was measured using the FLIPRtetra (MDS Analytical Technologies) or FLIPR384 (MDS Analytical Technologies).
IC50 between 0.1-10 nM (+++), >10-50 nM (++), >50-500 nM (+).

Structures are written as SMILES.

T1 sequence (Q9HBA0 whole entry): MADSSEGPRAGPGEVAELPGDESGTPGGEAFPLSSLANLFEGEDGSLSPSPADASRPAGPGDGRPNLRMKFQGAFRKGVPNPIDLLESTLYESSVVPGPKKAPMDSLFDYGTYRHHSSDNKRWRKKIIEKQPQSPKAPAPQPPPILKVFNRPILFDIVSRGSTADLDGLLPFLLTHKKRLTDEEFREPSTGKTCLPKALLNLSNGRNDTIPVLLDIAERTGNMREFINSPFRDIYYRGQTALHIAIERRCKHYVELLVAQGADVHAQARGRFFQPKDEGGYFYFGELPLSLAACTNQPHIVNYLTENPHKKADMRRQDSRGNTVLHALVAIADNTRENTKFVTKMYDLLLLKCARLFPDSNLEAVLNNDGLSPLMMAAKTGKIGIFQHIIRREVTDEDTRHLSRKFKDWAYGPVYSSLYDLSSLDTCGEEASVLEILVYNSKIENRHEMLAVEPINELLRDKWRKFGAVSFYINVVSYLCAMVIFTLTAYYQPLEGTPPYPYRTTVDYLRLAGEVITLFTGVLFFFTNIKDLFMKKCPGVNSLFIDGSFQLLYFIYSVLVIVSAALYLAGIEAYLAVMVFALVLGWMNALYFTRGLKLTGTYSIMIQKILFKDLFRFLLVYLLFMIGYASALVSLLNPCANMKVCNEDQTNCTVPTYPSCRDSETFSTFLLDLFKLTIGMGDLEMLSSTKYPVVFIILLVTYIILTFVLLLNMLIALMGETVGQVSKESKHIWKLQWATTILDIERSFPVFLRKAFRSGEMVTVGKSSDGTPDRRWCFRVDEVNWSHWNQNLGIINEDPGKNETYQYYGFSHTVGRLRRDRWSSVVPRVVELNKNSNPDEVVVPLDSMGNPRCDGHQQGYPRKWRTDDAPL

Broadly, the IC50 is the point on the concentration scale where inhibition reaches its midpoint. In the case of `C[C@]1(Cn2cnc3ccc(C#N)cc32)CCC[C@@]2(CN(Cc3csc4ncccc34)C(=O)O2)C1` (relative stereo) [Example 152, 1-{[(trans)-7-methyl-2-oxo-3-(thieno[2,3-b]pyridin-3-ylmethyl)-1-oxa-3-azaspiro[4.5]dec-7-yl]methyl}-1H-benzimidazole-6-carbonitrile], the half-inhibitory concentration (IC50) fell in the range of 0.1 to 10 nM. Turning to `N#Cc1ccc2ccn(C[C@H]3CCC[C@]4(C3)CN(Cc3csc5ccc(Cl)cc35)C(=O)O4)c2c1` (stereo in doubt) [Example 59, 1-({3-[(5-chloro-1-benzothien-3-yl)methyl]-2-oxo-1-oxa-3-azaspiro[4.5]dec-7-yl}methyl)-1H-indole-6-carbonitrile], the IC50 fell in the range of 50 to 500 nM. For `N#Cc1ccc2nc(C(F)(F)F)n(C[C@H]3CCC[C@]4(C3)CN(Cc3csc5ccc(Cl)cc35)C(=O)O4)c2c1` (stereo in doubt) [Example 60, 1-({3-[(5-chloro-1-benzothien-3-yl)methyl]-2-oxo-1-oxa-3-azaspiro[4.5]dec-7-yl}methyl)-2-(trifluoromethyl)-1H-benzimidazole-6-carbonitrile], the 50% inhibitory concentration (IC50) was 50 to 500 nM.

With `N#Cc1ccc2ncn(C[C@H]3CCC[C@]4(C3)CN(Cc3csc5ccccc35)C(=O)O4)c2c1` (stereo in doubt) [Example 62, 1-{[3-(1-benzothien-3-ylmethyl)-2-oxo-1-oxa-3-azaspiro[4.5]dec-7-yl]methyl}-1H-benzimidazole-6-carbonitrile], the IC50 was 10 to 50 nM. For the molecule `N#Cc1cc(F)cc(-n2cc(CN3CC4(CCC[C@H](Cn5cnc6ccc(C#N)cc65)C4)OC3=O)nn2)c1` (stereo in doubt) [Example 103, 1-[((5S,7S)-3-{[1-(3-cyano-5-fluorophenyl)-1H-1,2,3-triazol-4-yl]methyl}-2-oxo-1-oxa-3-azaspiro[4.5]dec-7-yl)methyl]-1H-benzimidazole-6-carbonitrile], the IC50 was 0.1 to 10 nM. For the molecule `CCOc1ccc(CN2CC3(CCC[C@](C)(Cn4cnc5ccc(C#N)cc54)C3)OC2=O)nc1` (stereo in doubt) [Example 157, 1-(((5S,7S)-3-((5-ethoxypyridin-2-yl)methyl)-7-methyl-2-oxo-1-oxa-3-azaspiro[4.5]decan-7-yl)methyl)-1H-benzo[d]imidazole-6-carbonitrile], the half-maximal inhibitory concentration (IC50) fell in the range of 0.1 to 10 nM.

Consider `C[C@]1(Cn2cnc3ccc(C#N)cc32)CCCC2(CN(Cc3cc(F)ccn3)C(=O)O2)C1` (stereo in doubt) [Example 158, 1-(((5S,7S)-3-((4-fluoropyridin-2-yl)methyl)-7-methyl-2-oxo-1-oxa-3-azaspiro[4.5]decan-7-yl)methyl)-1H-benzo[d]imidazole-6-carbonitrile], for which the IC50 was in the range of 0.1 to 10 nM. For the molecule `CC(C)(C)c1cc(N2C[C@@]3(CCC[C@](C)(Cn4cnc5ccc(C#N)cc54)C3)OC2=O)on1` [Example 1, 1-({(5S,7S)-3-[3-(1,1-Dimethylethyl)-5-isoxazolyl]-7-methyl-2-oxo-1-oxa-3-azaspiro[4.5]dec-7-yl}methyl)-1H-benzimidazole-6-carbonitrile], the concentration for half-maximal inhibition (IC50) lay in the range of 10 to 50 nM.

For the molecule `CC(C)(C#N)c1cc(N2C[C@@]3(CCC[C@](C)(Cn4cnc5ccc(C#N)cc54)C3)OC2=O)on1` [Example 2], the IC50 lay in the range of 0.1 to 10 nM. In the case of `CC(C)(C)c1cc(N2C[C@@]3(CCC[C@](C)(Cn4cnc5ccc(C#N)cc54)C3)OC2=O)no1` [Example 3, 1-({(5S,7S)-3-[5-(1,1-Dimethylethyl)-3-isoxazolyl]-7-methyl-2-oxo-1-oxa-3-azaspiro[4.5]dec-7-yl}methyl)-1H-benzimidazole-6-carbonitrile] it was 0.1 to 10 nM. For the molecule `C[C@]1(Cn2cnc3ccc(C#N)cc32)CCC[C@@]2(CN(Cc3ccccn3)C(=O)O2)C1` [Example 4, 1-{[(5S,7S)-7-Methyl-2-oxo-3-(2-pyridinylmethyl)-1-oxa-3-azaspiro[4.5]dec-7-yl]methyl}-1H-benzimidazole-6-carbonitrile], the half-inhibitory concentration (IC50) fell in the range of 0.1 to 10 nM. Regarding `CC(C)(CN1C[C@@]2(CCC[C@H](Cn3cnc4ccc(C#N)cc43)C2)OC1=O)c1nnc(-c2ccccc2)o1` [Example 5, 1-({(5S,7S)-3-[2-Methyl-2-(5-phenyl-1,3,4-oxadiazol-2-yl)propyl]-2-oxo-1-oxa-3-azaspiro[4.5]dec-7-yl}methyl)-1H-benzimidazole-6-carbonitrile], the half-inhibitory concentration (IC50) fell in the range of 0.1 to 10 nM. `CCc1noc(C(C)(C)CN2C[C@@]3(CCC[C@H](Cn4cnc5ccc(C#N)cc54)C3)OC2=O)n1` [Example 6, 1-({(5S,7S)-3-[2-(3-Ethyl-1,2,4-oxadiazol-5-yl)-2-methylpropyl]-2-oxo-1-oxa-3-azaspiro[4.5]dec-7-yl}methyl)-1H-benzimidazole-6-carbonitrile]: the IC50 was in the range of 0.1 to 10 nM.

For `CC1(CN2C[C@@]3(CCC[C@H](Cn4cnc5ccc(C#N)cc54)C3)OC2=O)CCN(c2ncccn2)C1` (stereo partly drawn) [Example 7, 1-[((5S,7S)-3-{[3-Methyl-1-(2-pyrimidinyl)-3-pyrrolidinyl]methyl}-2-oxo-1-oxa-3-azaspiro[4.5]dec-7-yl)methyl]-1H-benzimidazole-6-carbonitrile], the concentration for half-maximal inhibition (IC50) lay in the range of 50 to 500 nM. Take `C[C@]1(Cn2cnc3ccc(C#N)cc32)CCC[C@@]2(CN(Cc3cn(-c4ccccc4)nn3)C(=O)O2)C1` [Example 8, 1-({(5S,7S)-7-Methyl-2-oxo-3-[(1-phenyl-1H-1,2,3-triazol-4-yl)methyl]-1-oxa-3-azaspiro[4.5]dec-7-yl}methyl)-1H-benzimidazole-6-carbonitrile]: the concentration for half-maximal inhibition (IC50) fell in the range of 0.1 to 10 nM. With `N#Cc1ccc2ncn(C[C@H]3CCC[C@]4(C3)CN(Cc3cn(-c5cncc(C(F)(F)F)c5)nn3)C(=O)O4)c2c1` [Example 9, 1-{[(5S,7S)-2-Oxo-3-({1-[5-(trifluoromethyl)-3-pyridinyl]-1H-1,2,3-triazol-4-yl}methyl)-1-oxa-3-azaspiro[4.5]dec-7-yl]methyl}-1H-benzimidazole-6-carbonitrile], the concentration for half-maximal inhibition (IC50) was in the range of 0.1 to 10 nM. With `CC(C)(C)c1noc(N2C[C@@]3(CCC[C@](C)(Cn4cnc5ccc(C#N)cc54)C3)OC2=O)c1Cl` [Example 10, 1-({(5S,7S)-3-[4-Chloro-3-(1,1-dimethylethyl)-5-isoxazolyl]-7-methyl-2-oxo-1-oxa-3-azaspiro[4.5]dec-7-yl}methyl)-1H-benzimidazole-6-carbonitrile], the concentration for half-maximal inhibition (IC50) fell in the range of 0.1 to 10 nM. As for `C[C@]1(Cn2cnc3ccc(C#N)cc32)CCC[C@@]2(CN(c3ccc(C(F)(F)F)cn3)C(=O)O2)C1` [Example 11, 1-({(5S,7S)-7-Methyl-2-oxo-3-[5-(trifluoromethyl)-2-pyridinyl]-1-oxa-3-azaspiro[4.5]dec-7-yl}methyl)-1H-benzimidazole-6-carbonitrile], the half-maximal inhibitory concentration (IC50) fell in the range of 10 to 50 nM.

Turning to `CCOc1ccc(N2C[C@@]3(CCC[C@](C)(Cn4cnc5ccc(C#N)cc54)C3)OC2=O)cn1` [Example 12, ′1-({(5S,7S)-3-[6-(Ethyloxy)-3-pyridinyl]-7-methyl-2-oxo-1-oxa-3-azaspiro[4.5]dec-7-yl}methyl)-1H-benzimidazole-6-carbonitrile], the 50% inhibitory concentration (IC50) lay in the range of 0.1 to 10 nM.

As to `COc1ccc(N2C[C@@]3(CCC[C@](C)(Cn4cnc5ccc(C#N)cc54)C3)OC2=O)cn1` [Example 13], the IC50 was in the range of 0.1 to 10 nM.

Turning to `CCOc1cnc(N2C[C@@]3(CCC[C@](C)(Cn4cnc5ccc(C#N)cc54)C3)OC2=O)cn1` [Example 14, 1-(((5S,7S)-3-(5-Ethoxypyrazin-2-yl)-7-methyl-2-oxo-1-oxa-3-azaspiro[4.5]decan-7-yl)methyl)-1H-benzo[d]imidazole-6-carbonitrile], the half-inhibitory concentration (IC50) fell in the range of 0.1 to 10 nM.

As to `COc1cc(C)c(N2C[C@@]3(CCC[C@](C)(Cn4cnc5ccc(C#N)cc54)C3)OC2=O)cn1` [Example 15, 1-(((5S,7S)-3-(6-Methoxy-4-methylpyridin-3-yl)-7-methyl-2-oxo-1-oxa-3-azasbiro[4.5]decan-7-yl)methyl)-1H-benzo[d]imidazole-6-carbonitrile], the half-maximal inhibitory concentration (IC50) is 0.1 to 10 nM.

For the molecule `CCn1ncc(N2C[C@@]3(CCC[C@](C)(Cn4cnc5ccc(C#N)cc54)C3)OC2=O)c1C` [Example 16, 1-(((5S,7S)-3-(1-Ethyl-5-methyl-1H-pyrazol-4-yl)-7-methyl-2-oxo-1-oxa-3-azaspiro[4.5]decan-7-yl)methyl)-1H-benzo[d]imidazole-6-carbonitrile], the IC50 lay within 0.1 to 10 nM.

Turning to `COc1cnc(N2C[C@@]3(CCC[C@](C)(Cn4cnc5ccc(C#N)cc54)C3)OC2=O)cn1` [Example 17, 1-(((7S)-3-(5-Methoxypyrazin-2-yl)-7-methyl-2-oxo-1-oxa-3-azaspiro[4.5]decan-7-yl)methyl)-1H-benzo[d]imidazole-6-carbonitrile], the IC50 is 10 to 50 nM. `C[C@]1(Cn2cnc3ccc(C#N)cc32)CCC[C@@]2(CN(c3ccc(Cl)nc3)C(=O)O2)C1` [Example 18]: the half-maximal inhibitory concentration (IC50) lay in the range of 10 to 50 nM. Consider `CN(C)c1ccc(N2C[C@@]3(CCC[C@](C)(Cn4cnc5ccc(C#N)cc54)C3)OC2=O)cn1` [Example 19, 1-(((5S,7S)-3-(6-(Dimethylamino)pyridin-3-yl)-7-methyl-2-oxo-1-oxa-3-azaspiro[4.5]decan-7-yl)methyl)-1H-benzo[d]imidazole-6-carbonitrile], for which the IC50 was 0.1 to 10 nM.
